In patent US6689767B2, “Triterpenes having antibacterial activity” (Regents of the University of Minnesota, priority 2000, dated 2004):

Key:
[1] = tested on: Staphylococcus aureus; assay: Kirby-Bauer disk diffusion growth inhibition, Staphylococcus aureus; format: cell-based; conditions: for Active against: Table 1 summary, S. aureus
Protocol: (§1) The compounds disclosed herein were tested for growth inhibition against four strains of bacteria: Escherichia coli, Staphylococcus aureus, methicillin-resistant Staphylococcus aureus, and Bacillus subtilis. […] They represent […]. E. coli is a gram-negative, non-spore forming, rod-shaped, opportunistic pathogen that resides in the human digestive tract. S. aureus is a gram positive coccus, is usually found morphologically as a […], and is an opportunistic human pathogen, often residing on or in the skin. B. subtilis is a gram positive spore-forming rod. Its native environment is the soil. The chemicals were tested for growth-inhibition of the bacteria by the Kirby-Bauer method. See, e.g., Microbiology, third edition; Lansing M. Prescott, John P. Harley, and Donald A. Klein; Wm. C. Brown Publishers.
(§2) Mueller-Hinton agar (Difco Lab, Michigan) was prepared according to the manufacturer's directions, and 20 ml was dispensed in each sterile petri dish. Sterile nutrient broth (Difco Lab, Michigan) was also prepared according to the manufacturer's directions.
(§3) Bacteria were grown in liquid nutrient broth for 18 hours at 37° C. until they were turbid.
(§4) An aliquot of 0.5 ml of cultured bacteria was aseptically transferred to the surface of a Mueller-Hinton agar plat, and spread using a cotton-tipped swab. Plates were then allowed to dry for 5 minutes. Then a 10 mm diameter filter paper disk impregnated with the test chemical was placed with sterile forceps on the plate. The disks were impregnated with 100 μl of a solution of the test compound in DMSO or in water, at the indicated concentrations in Table 1.
(§5) The zones of inhibition were measured after 18 hours growth at 37° C. Tests were done in triplicate.
(§6) Additional compounds were tested for activity against E. coli, laboratory strain S. aureus (not methicillin resistant), and B. subtilis. The compounds were tested by the disk diffusion method, as in Example 1, with application of a 10 mg/mil solution of the test compound in DMSO.
(§7) Derivatives of lupeol were tested for inhibition of bacterial growth using the Kirby-Bauer disk diffusion method and by growth in liquid culture. For the disk diffusion method, compounds were dissolved in DMSO and 100 μl was added to the 10 mm filter paper disk. The amount of compound applied to the disk varied. The amount applied for each compound was as follows: lupeol (50 μg), lupeol-3-maleate (15 μg), lupeol-3-thiodiglycolate (15 μg), lupeol-3-dimethyl succinate (60 μg), lupeol-3-phosphate (30 μg), lupenone (50 μg), lupenon-3-oxime (50 μg), lupeol-3-amine (50 μg), lupenon-1,2-ene-2-ol (50 μg). In liquid culture, the compounds were dissolved in DMSO at 1 mg/ml and then 100 μl was added to 7 ml of sterile broth, along with a 1/200 dilution of freshly grown bacterial liquid culture.

[2] = tested on: Staphylococcus epidermis; assay: Growth in liquid culture, optical density, S. epidermidis; format: cell-based, Staphylococcus epidermidis; conditions: 600 nm, 24 hours growth, test compound at 14 μg per ml; None = 0.07
Protocol: as §7

[3] = tested on: Enterococcus faecalis; assay: Kirby-Bauer disk diffusion of lupeol derivatives, Enterococcus faecalis; format: cell-based; conditions: for Active against: Table 1 summary, E. faecalis
Protocol: as §7

[4] = tested on: Enterococcus faecilis; assay: Growth in liquid culture, optical density, E. faecalis; format: cell-based, Enterococcus faecalis; conditions: 600 nm, 24 hours growth, test compound at 14 μg per ml; None = 0.85
Protocol: as §7

[5] = tested on: Staphylococcus aureus; assay: Growth in liquid culture, optical density, S. aureus; format: cell-based; conditions: 600 nm, 24 hours growth, test compound at 14 μg per ml; None = 0.08
Protocol: as §7

[6] = tested on: bacteria; assay: Summary statements over the antibacterial assays above; format: cell-based; conditions: for overall activity in Example 35: S. aureus, S. epidermidis, E. faecalis, disk diffusion and liquid growth; for active against at least one strain of bacteria in the assays above: summary list
[7] = tested on: Staphylococcus epidemidis; assay: Kirby-Bauer disk diffusion of lupeol derivatives, Staphylococcus epidermidis; format: cell-based; conditions: for Active against: Table 1 summary, S. epidermidis; for activity against S. epidermidis: Example 35, disk diffusion and liquid growth
Protocol: as §7

[8] = tested on: Escherichia coli; assay: Kirby-Bauer disk diffusion growth inhibition, Escherichia coli; format: cell-based; conditions: Escherichia coli; 125 ng/ml in water, 100 μl on 10 mm disk, 18 hours 37° C.; read-out: Zone of inhibition Escherichia coli
Protocol: as §1, §2, §3, §4, §5, §6

[9] = tested on: Bacillus subtilis; assay: Kirby-Bauer disk diffusion growth inhibition, Bacillus subtilis; format: cell-based; conditions: Bacillus subtilis; 125 ng/ml in water, 100 μl on 10 mm disk, 18 hours 37° C.; read-out: Zone of inhibition Bacillus subtilis
Protocol: as §1, §2, §3, §4, §5, §6

[10] = Example 35, 50 μg applied to 10 mm disk in DMSO
[11] = 50 μg applied to 10 mm disk in DMSO
[12] = 60 μg applied to 10 mm disk in DMSO
[13] = Example 35, 15 μg applied to 10 mm disk in DMSO
[14] = 15 μg applied to 10 mm disk in DMSO
[15] = 30 μg applied to 10 mm disk in DMSO

SMILES | Zone of inhibition (mm) against S. aureus [1, 10] [mm] | Active against [1] | Optical Density of S. epiderm [2] | Zone of inhibition (mm) against E. faecalis [3, 11] [mm] | Active against [3] | Optical Density of E. faecalis [4] | Optical Density of S. aureus [5] | active against at least one strain of bacteria in the assays above [6] | Zone of inhibition (mm) against S. epiderm. [7, 11] [mm] | Active against [7] | activity against S. epidermidis [7] | further results
CC(=O)OC1CC[C@@]2(C)C(CC[C@]3(C)C2CCC2C4C5OC(=O)C4(CCC5(C)C)CC[C@@]23C)C1(C)C (stereo partly drawn) [Allobetulin lactone-3-acetate, 3-O-acetyl allobetulin-lactone] |  |  |  |  |  |  |  |  |  |  |  | melting point: 312.5 to 315.4 °C (dec.)
C=C(C)[C@@H]1CC[C@]2(C)CC[C@]3(C)[C@H](CC[C@@H]4[C@@]5(C)C=C(O)C(=O)C(C)(C)[C@@H]5CC[C@]43C)[C@@H]12 [Lupenon-1,2-ene-2-ol] | 0.85 | S. aureus, | 0.006 | 0.6 | E. faecalis | 0.01 | 0.04 | active against at least one strain of bacteria | 2.65 | S. epidermidis, |  | overall activity in Example 35 [6]: most active compound against almost all the bacteria
C=C(C)[C@@H]1CC[C@]2(C)CC[C@]3(C)[C@H](CC[C@@H]4[C@@]5(C)CCC(=O)C(C)(C)[C@@H]5CC[C@]43C)[C@@H]12 [Lupenone] | 1.25 | S. aureus, | 0.03 | 0.5 | E. faecalis | 0.04 | 0.04 | active against at least one strain of bacteria | 1 |  |  | overall activity in Example 35 [6]: excellent activity
C=C(C)C1CCC2(C)CCC3(C)C(CCC4C5(C)CCC(OC(=O)CC(C)(C)C(=O)O)C(C)(C)C5CCC43C)C12 (stereo not drawn) [Lupeol-3-(3′,3′-dimethyl)succinate] |  | S. aureus | 0.06 |  |  | 0.07 | 0.06 | active against at least one strain of bacteria |  |  |  | Zone of inhibition (mm) against S. aureus ([1]; Example 35, 60 μg applied to 10 mm disk in DMSO): 0.5 mm; Zone of inhibition (mm) against E. faecalis [3, 12]: 0 mm; Zone of inhibition (mm) against S. epiderm. [7, 12]: 0 mm
C=C(C)[C@@H]1CC[C@]2(C)CC[C@]3(C)[C@H](CC[C@@H]4[C@@]5(C)CCC(N)C(C)(C)[C@@H]5CC[C@]43C)[C@@H]12 (stereo partly drawn) [Lupeol-3-amine] | 0.3 | S. aureus, | 0.06 | 0.5 | E. faecalis | 0.04 | 0.06 | active against at least one strain of bacteria | 0 |  |  | 
C=C(C)C1CCC2(C)CCC3(C)C(CCC4C5(C)CCC(OC(=O)C=CC(=O)O)C(C)(C)C5CCC43C)C12 (stereo not drawn) [Lupeol-3-maleate] |  | S. aureus, | 0.04 |  | E. faecalis | 0.03 | 0.06 | active against at least one strain of bacteria |  | S. epidermidis, | active | Zone of inhibition (mm) against S. aureus [1, 13]: 0.4 mm; Zone of inhibition (mm) against E. faecalis [3, 14]: 1.15 mm; Zone of inhibition (mm) against S. epiderm. [7, 14]: 0.5 mm
C=C(C)[C@@H]1CC[C@]2(C)CC[C@]3(C)[C@H](CC[C@@H]4[C@@]5(C)CC[C@H](OP(=O)(O)O)C(C)(C)[C@@H]5CC[C@]43C)[C@@H]12 [Lupeol-3-phosphate] |  | S. aureus, | 0.06 |  | E. faecalis | 0.04 | 0.06 | active against at least one strain of bacteria |  |  |  | Zone of inhibition (mm) against S. aureus ([1]; Example 35, 30 μg applied to 10 mm disk in DMSO): 0.5 mm; Zone of inhibition (mm) against E. faecalis [3, 15]: 0.5 mm; Zone of inhibition (mm) against S. epiderm. [7, 15]: 0 mm
C=C(C)[C@@H]1CC[C@]2(C)CC[C@]3(C)[C@H](CC[C@@H]4[C@@]5(C)CC[C@H](OC(=O)CSCC(=O)O)C(C)(C)[C@@H]5CC[C@]43C)[C@@H]12 [Lupeol-3-thiodiglycolate] |  | S. aureus, | 0.035 |  | E. faecalis | 0.04 | 0.06 | active against at least one strain of bacteria |  | S. epidermidis, | active | Zone of inhibition (mm) against S. aureus [1, 13]: 0.3 mm; Zone of inhibition (mm) against E. faecalis [3, 14]: 0.75 mm; Zone of inhibition (mm) against S. epiderm. [7, 14]: 0.5 mm
C=C(C)[C@@H]1CC[C@]2(C)CC[C@@]3(C)C(CCC4[C@@]5(C)CC[C@H](O)C(C)(C)C5CC[C@]43C)C12 (stereo partly drawn) [Lupeol] |  | S. aureus, | 0.04 |  | Enterococcus faecalis | 0.03 | 0.06 | active against at least one strain of bacteria |  | S. epidermidis | active | zone of inhibition at 0.125 µg/mL ([1]; Staphylococcus aureus, 125 ng/ml in water, 100 μl on 10 mm disk, 18 hours 37° C., read-out: Zone of inhibition Staphylococcus aureus): 0 mm; zone of inhibition at 50 µg/disc ([1]; Staphylococcus aureus, Example 35, 50 μg applied to 10 mm disk in DMSO, read-out: Zone of inhibition (mm) against S. aureus): 1 mm; zone of inhibition at 50 µg/disc ([3]; Enterococcus faecalis, 50 μg applied to 10 mm disk in DMSO, read-out: Zone of inhibition (mm) against E. faecalis): 1.4 mm; zone of inhibition at 0.125 µg/mL [8]: 0 mm; zone of inhibition at 50 µg/disc ([7]; Staphylococcus, 50 μg applied to 10 mm disk in DMSO, read-out: Zone of inhibition (mm) against S. epiderm.): 0 mm; zone of inhibition at 0.125 µg/mL [9]: 0 mm
